The record followed here is US12533357B2, “Treatment for acute myeloid leukemia or myelodysplastic syndrome” (UNIVERSITY HEALTH NETWORK, priority 2019, dated 2026).

Experiment [1] deals with MV4-11 acute myeloid leukemia xenograft. Put plainly: MV4-11 xenograft tumor growth in SCID mice. It is filed as in vivo. Particulars: day 13; vincristine 0.5 mg/kg IP weekly; p=0.14. The procedure: The human acute myeloid leukemia cell line MV4-11 was acquired from American Type Culture Collection (Manassas, VA, USA) and grown in RPMI medium containing 100 units/mL penicillin G sodium, 100 μg/mL streptomycin sulfate. The media was supplemented with 10% heat-inactivated fetal bovine serum, 2 mM L-glutamine, and 0.11% sodium pyruvate. The tumor cells were maintained in a humidified environment of 5% CO2 and 95% air at 37° C. Cells were verified to be free of mouse pathogens by IMPACT IV PCR analysis (IDEXX RADIL, Colombia, MO, USA) before injection.
(§1) Female SCID mice were purchased from the Ontario Cancer Institute and received and acclimated at the MaRS-TMDT Animal Resources Centre for 2 weeks prior to the start of the experiment. The mice were fed ad libitum autoclaved water and Rodent Lab Diet (Harlan Teklad LM-485) consisting of 19% crude protein, 5% crude fat, and 5% crude fiber. Mice were housed in microisolator cages and maintained in an environment with a 12-hour light cycle at 20-22° C. and 40-60% humidity. On the day of implantation, MV4-11 cells were harvested and resuspended with serum free DMEM to a concentration of 1×10^8/mL and each mouse was injected subcutaneously with a volume of 0.1 mL containing 1×10^7 MV4-11 cells in the right rear flank.
Animals were dosed Compound (I) via oral gavage in a volume of 10 ml/kg. The animals were dosed with a 2.25 mm×50 mm curved gavage needle affixed to a 1 ml syringe. Vincristine was dosed by IP injection once per week.
(§2) Toxicity was evaluated by body weight measurements and clinical observations. The mice were observed daily for overt signs of any adverse, treatment related side effects, and clinical signs of toxicity. Acceptable toxicity was set at a group mean body weight loss of less than 20% during the study and not more than one treatment related death in a group. Animals were monitored for body weights and tumor growth where tumor volumes were calculated using the formula: tumor volume=width^2×length/2.
The study evaluated Compound (I) fumarate administered by oral gavage, either daily at 7.5 mg/kg or 2 days on/5 days off at 13.5 mg/kg, in comparison to the standard-of-care agent vincristine, dosed in 4 weekly intraperitoneal injections of 0.5 mg/kg, in the MV4-11 acute myeloid leukemia xenograft model in SCID (severe combined immunodeficiency) mice. Xenografts were established by subcutaneously injecting 1×10^7 tumor cells into the right flank of female SCID mice. Treatment was initiated 14 days following implantation when tumor volumes reached a mean volume of approximately 90 mm^3. […] Animals were dosed in the 2-on/5-off schedule for 21 days. […] By day 13, the average volume of the control tumors was 878 mm^3, averaging […] tumor growth over the 13 days. On day 13 the average tumor growth inhibition in the vincristine treated arm was 85% (p=0.14).

Experiment [2] deals with MOLT-4 acute lymphoblastic leukemia xenograft. Put plainly: MOLT-4 xenograft tumor growth in SCID mice. It is filed as in vivo. Conditions: day 13; 0.5 mg/kg IP weekly; p=0.21. On the procedure:
The human acute lymphoblastic leukemia cell line MOLT-4 was acquired from American Type Culture Collection (Manassas, VA, USA) and grown in RPMI medium containing 100 units/mL penicillin G sodium, 100 μg/mL streptomycin sulfate. The media was supplemented with 10% heat-inactivated fetal bovine serum, 2 mM L-glutamine, and 0.11% sodium pyruvate. The tumor cells were maintained in a humidified environment of 5% CO2 and 95% air at 37° C. Cells were verified to be free of mouse pathogens by IMPACT IV PCR analysis (IDEXX RADIL, Colombia, MO, USA) before injection.
as §1, with “MOLT-4” for “MV4-11”
Animals were dosed Compound (I) via oral gavage in a volume of 10 mL/kg. The animals were dosed with a 2.25 mm×50 mm curved gavage needle affixed to a 1 mL syringe. Vincristine was dosed by IP injection once per week.
as §2
The study evaluated Compound (I) fumarate administered by oral gavage for 21 days, either daily at 7.5 mg/kg or 2 days on/5 days off at 13.5 mg/kg, in comparison to the standard-of-care agent vincristine, dosed in 4 weekly intraperitoneal injections of 0.5 mg/kg, in the MOLT-4 […] xenograft model in SCID (severe combined immunodeficiency) mice. Xenografts were established by subcutaneously injecting 1×10^7 tumor cells into the right flank of female SCID mice. Treatment was initiated 9 days following implantation when tumor volumes reached a mean volume of approximately 250 mm^3.

As to `CC[C@]1(O)C[C@H]2CN(CCc3c([nH]c4ccccc34)[C@@](C(=O)OC)(c3cc4c(cc3OC)N(C=O)[C@H]3[C@@](O)(C(=O)OC)[C@H](OC(C)=O)[C@]5(CC)C=CCN6CC[C@]43[C@@H]65)C2)C1` [vincristine, reference compound], the “average tumor growth inhibition” value in experiment [1] is reported as 85%; in experiment [2], 18%.
